In ChEMBL document CHEMBL1154002, “GPR109a agonists. Part 1: 5-Alkyl and 5-aryl-pyrazole-tetrazoles as agonists of the human orphan G-protein coupled receptor GPR109a” (Bioorg Med Chem Lett, 2009):

Assays:
[1] = Bioavailability in C57BL/6 mouse at 1 mg/kg, iv and 2 mg/kg, po; type: ADME, organism-based; details: in vivo
[2] = Volume of distribution at steady state in C57BL/6 mouse at 1 mg/kg, iv and 2 mg/kg, po; type: ADME, organism-based; details: in vivo, read-out: Vdss
[3] = Plasma half life in C57BL/6 mouse at 1 mg/kg, iv and 2 mg/kg, po; type: ADME, organism-based
[4] = Plasma clearance in C57BL/6 mouse at 1 mg/kg, iv and 2 mg/kg, po; type: ADME, organism-based
[5] = test system: Mus musculus; experiment: Reduction in plasma free fatty acid level in C57B1/6 mouse at 10 mg/kg after 15 mins; type: functional; set-up: scale not given: the % may be the effect or the level left
[6] = test system: Mus musculus; experiment: Toxicity in C57B1/6 mouse assessed as cutaneous flushing at 30 mg/kg after 15 mins by laser doppler method; type: organism-based; set-up: dose 30 mg/kg; details: in vivo

Row | Structure (SMILES) | bioavailability [1] [%] | Vd [2] [L/kg] | half-life [3] [h] | clearance [4] [mL/min/kg] | Activity [5] [%] | Activity [6]
1 | CCCC1Cc2[nH]nc(-c3nnn[nH]3)c2C1 (stereo unspecified) | 51 | 1.55 | 2.9 | 30 |  | 
2 | CCCCC1Cc2[nH]nc(-c3nnn[nH]3)c2C1 (stereo in doubt; 8d) | 34 | 0.7 | 1.5 | 21 |  | 

The next lines start with results.

Row | bioavailability [1] [%] | Vd [2] [L/kg] | half-life [3] [h] | clearance [4] [mL/min/kg] | Structure (SMILES) | Activity [5] [%] | Activity [6]
3 | 57 | 1.79 | 1.8 | 47 | Fc1cccc(C2Cc3[nH]nc(-c4nnn[nH]4)c3C2)c1 (stereo unspecified) |  | 
4 | 10 | 1.1 | 2.4 | 27 | Fc1cc(F)c(F)c(C2Cc3[nH]nc(-c4nnn[nH]4)c3C2)c1 (stereo in doubt; 9o) | 24 | Non-toxic
5 | 100 | 1 |  | 145 | O=C(O)c1cccnc1 [NIACIN] |  | 
